# Data as given in patent publication US9695155B2, “Herbicidal substituted pyrimidinyloxy benzene compounds” (E. I. DU PONT DE NEMOURS AND COMPANY, priority 2013, dated 2017).
# Legend:
# [1] = test system: field poppy; experiment: Test D preemergence; type: in vivo, Papaver rhoeas
# Method in brief: (§1)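 Values are 0–100 visual control ratings (0 none, 100 complete) given 7–21 days after application. Soil for preemergence was silt loam; postemergence plants stood 2–18 cm tall.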
# [2] = test system: chickweed; experiment: Test D postemergence; type: in vivo, Stellaria media
# Method in brief: as §1
# [3] = test system: Italian ryegrass; experiment: Test D postemergence; type: in vivo, Lolium multiflorum
# Method in brief: as §1
# [4] = test system: winter barley; experiment: Test D postemergence; type: in vivo, Hordeum vulgare
# Method in brief: as §1
# [5] = test system: spring barley; experiment: Test D postemergence; type: in vivo, Hordeum vulgare
# Method in brief: as §1
# [6] = test system: speedwell; experiment: Test D preemergence; type: in vivo, Veronica persica
# Method in brief: as §1
# [7] = test system: wild oat; experiment: Test D preemergence; type: in vivo, Avena fatua
# Method in brief: as §1
# [8] = test system: wild buckwheat; experiment: Test D postemergence; type: in vivo, Polygonum convolvulus
# Method in brief: as §1
# [9] = test system: lambsquarters; experiment: Test D postemergence; type: in vivo, Chenopodium album
# Method in brief: as §1
# [10] = test system: pigweed; experiment: Test D postemergence; type: in vivo, Amaranthus retroflexus
# Method in brief: as §1
# [11] = test system: pigweed; experiment: Test D preemergence; type: in vivo, Amaranthus retroflexus
# Method in brief: as §1
# [12] = 16 g ai/ha, scale 0 (no effect) to 100 (complete control)
# [13] = 31 g ai/ha, scale 0 to 100 (0 no effect, 100 complete control)
# [14] = 62 g ai/ha, scale 0 to 100 (0 no effect, 100 complete control)
# [15] = 125 g ai/ha, scale 0 to 100 (0 no effect, 100 complete control)
# [16] = Postemergence, 62 g ai/ha, scale 0 to 100 (0 no effect, 100 complete control)
# [17] = Postemergence, 31 g ai/ha, scale 0 to 100 (0 no effect, 100 complete control)
# [18] = Postemergence, 125 g ai/ha, scale 0 to 100 (0 no effect, 100 complete control)
# [19] = postemergence, 16 g ai/ha, scale 0 to 100, 0 no effect, 100 complete control
# [20] = 31 g ai/ha, scale 0 (no effect) to 100 (complete control)
structure (smiles),measurement,setting,value
FCc1cccc(Oc2ncc(Cl)cn2)c1-n1cc(I)cn1 [Compound 245],"Plant response rating, Field Poppy",[1]; [12],100
same,"Plant response rating, Field Poppy","[1]; 31 g ai/ha, scale 0-100",100
same,"Plant response rating, Field Poppy","[1]; 62 g ai/ha, scale 0-100",100
same,"Plant response rating, Field Poppy","[1]; 125 g ai/ha, scale 0-100",100
same,"Plant response rating, Chickweed","[2]; 16 g ai/ha, scale 0-100",45
same,"Plant response rating, Chickweed",[2]; [13],75
same,"Plant response rating, Chickweed",[2]; [14],95
same,"Plant response rating, Chickweed",[2]; [15],98
same,"Plant response rating, Ryegrass, Italian","[3]; 16 g ai/ha, scale 0-100",0
same,"Plant response rating, Ryegrass, Italian",[3]; [13],10
same,"Plant response rating, Ryegrass, Italian",[3]; [14],20
same,"Plant response rating, Ryegrass, Italian",[3]; [15],20
same,"Plant response rating, Barley, Winter",[4]; [16],20
same,"Plant response rating, Barley, Winter",[4]; [17],15
same,"Plant response rating, Barley, Winter",[4]; [18],20
same,"Plant response rating, Barley, Winter",[4]; [19],25
same,"Plant response rating, Barley, Spring",[5]; [16],20
same,"Plant response rating, Barley, Spring",[5]; [17],20
same,"Plant response rating, Barley, Spring",[5]; [18],30
same,"Plant response rating, Barley, Spring",[5]; [19],10
same,"Plant response rating, Speedwell",[6]; [12],5
same,"Plant response rating, Speedwell",[6]; [20],100
same,"Plant response rating, Speedwell","[6]; 125 g ai/ha, scale 0-100",100
same,"Plant response rating, Oat, Wild",[7]; [12],0
same,"Plant response rating, Oat, Wild","[7]; 31 g ai/ha, scale 0-100",5
same,"Plant response rating, Oat, Wild","[7]; 62 g ai/ha, scale 0-100",20
same,"Plant response rating, Oat, Wild","[7]; 125 g ai/ha, scale 0-100",15
same,"Plant response rating, Buckwheat, Wild",[8]; [16],75
same,"Plant response rating, Buckwheat, Wild",[8]; [17],70
same,"Plant response rating, Buckwheat, Wild",[8]; [18],90
same,"Plant response rating, Buckwheat, Wild",[8]; [19],70
same,"Plant response rating, Lambsquarters","[9]; 16 g ai/ha, scale 0-100",65
same,"Plant response rating, Lambsquarters",[9]; [13],80
same,"Plant response rating, Lambsquarters",[9]; [14],85
same,"Plant response rating, Lambsquarters",[9]; [15],95
same,"Plant response rating, Pigweed","[10]; 16 g ai/ha, scale 0-100",95
same,"Plant response rating, Pigweed",[10]; [13],95
same,"Plant response rating, Pigweed",[10]; [14],100
same,"Plant response rating, Pigweed",[10]; [15],100
same,"Plant response rating, Pigweed",[11]; [12],98
same,"Plant response rating, Pigweed",[11]; [20],100
same,"Plant response rating, Pigweed","[11]; 125 g ai/ha, scale 0-100",100
